We go through three compounds from patent US20250026776A1, “Method for Simultaneously Separating and Purifying Two Galloylated Myricitrins from Morella rubra Leaves, and Use therefor” (Zhejiang University, priority 2022, published 2025).

In experiment [1] the target is α-glucosidase. In words: α-glucosidase inhibition assay (PNPG hydrolysis, absorbance at 405 nm). It counts as biochemical. Particulars: α-glucosidase 0.2 U/mL, phosphate buffer pH 6.8, 37° C., PNPG substrate, IC50 calculated with SPSS, read-out: α-glucosidase inhibitory activity IC50. As for the experimental part:
The concentration of pNP in the reaction solution, as measured by a plate reader, allows for the detection of the sample's ability to inhibit the activity of α-glucosidase. […] The mixture is then incubated at 37° C. for 15 minutes, after which 20 μL of PNPG solution (2.5 mM) is added. After a 15-minute reaction at 37° C., 80 μL of Na2CO3 solution (2.5 mM) is added, and the absorbance at 405 nm (ODtest) is measured using a plate reader. […] The formula for calculating the enzyme activity inhibition rate is as follows: [formula] The inhibitory effect of the tested monomers on α-glucosidase a gradient concentrations was used to calculate the IC50 values with SPSS.

For experiment [2], the system named is α-glucosidase. Particulars: cited from earlier work.

Read-outs that look alike come from different tables or passages of the source.

For `CC1OC(Oc2c(-c3cc(O)c(O)c(O)c3)oc3cc(O)cc(O)c3c2=O)C(O)C(O)C1OC(=O)c1cc(O)c(O)c(O)c1` [myricetin-3-O-(4″-galloyl)-α-L-rhamnoside], the half-inhibitory concentration (IC50) was 15.6 µM at α-glucosidase [1] (listed as myricetin-3-O-(4″-O-galloyl)-α-L-rhamnoside) and 1.77 µM at α-glucosidase [1].
As to `CC1OC(Oc2c(-c3cc(O)c(O)c(O)c3)oc3cc(O)cc(O)c3c2=O)C(OC(=O)c2cc(O)c(O)c(O)c2)C(O)C1O` [myricetin-3-O-(2″-galloyl)-α-L-rhamnoside], the IC50 on α-glucosidase [1] was 1.32 µM.
For `O=c1c(O)c(-c2cc(O)c(O)c(O)c2)oc2cc(O)cc(O)c12` [myricetin], in the experiment with α-glucosidase [2] (comparative study of 27 dietary flavonoids (Jia Y, et al., 2019)), the “rank of α-glucosidase inhibitory activity among 27 dietary flavonoids” value is “strongest inhibitor”. Also, the “rank of α-glucosidase inhibitory activity among 15 types of flavonoids” value in the experiment on α-glucosidase [2] (report on 15 types of flavonoids (He C., et al., 2019)) is “strongest inhibitory effect”. The IC50 on α-glucosidase [1] was 1.77 µM.
